Data taken from paper PMC9551036, “A selective and orally bioavailable VHL-recruiting PROTAC achieves SMARCA2 degradation in vivo” (Nature Communications, 2022).
Where “and” joins values, the source holds several entries; their conditions need not be identical. Equal values may be shown once. Entries after “also recorded” stand apart in the source; their conditions may differ. Read-outs that look alike come from different tables or passages of the source.

Tests used:
[1] = biological target: SMARCA2 (Homo sapiens, UniProt P51531); test: SMARCA2 IHC in NCI-H1568 xenograft tumours; assay type: in vivo, mouse; design: from tissue; host or cells: subcutaneous NCI-H1568 or A549 xenograft tumours in BomTac:NMRI-Foxn1nu mice; settings: NCI-H1568 xenograft; for SMARCA2 (OD, normalised) / SMARCA2 Nuclear OD: qd, end of study
SMARCA2, sequence (P51531 whole entry): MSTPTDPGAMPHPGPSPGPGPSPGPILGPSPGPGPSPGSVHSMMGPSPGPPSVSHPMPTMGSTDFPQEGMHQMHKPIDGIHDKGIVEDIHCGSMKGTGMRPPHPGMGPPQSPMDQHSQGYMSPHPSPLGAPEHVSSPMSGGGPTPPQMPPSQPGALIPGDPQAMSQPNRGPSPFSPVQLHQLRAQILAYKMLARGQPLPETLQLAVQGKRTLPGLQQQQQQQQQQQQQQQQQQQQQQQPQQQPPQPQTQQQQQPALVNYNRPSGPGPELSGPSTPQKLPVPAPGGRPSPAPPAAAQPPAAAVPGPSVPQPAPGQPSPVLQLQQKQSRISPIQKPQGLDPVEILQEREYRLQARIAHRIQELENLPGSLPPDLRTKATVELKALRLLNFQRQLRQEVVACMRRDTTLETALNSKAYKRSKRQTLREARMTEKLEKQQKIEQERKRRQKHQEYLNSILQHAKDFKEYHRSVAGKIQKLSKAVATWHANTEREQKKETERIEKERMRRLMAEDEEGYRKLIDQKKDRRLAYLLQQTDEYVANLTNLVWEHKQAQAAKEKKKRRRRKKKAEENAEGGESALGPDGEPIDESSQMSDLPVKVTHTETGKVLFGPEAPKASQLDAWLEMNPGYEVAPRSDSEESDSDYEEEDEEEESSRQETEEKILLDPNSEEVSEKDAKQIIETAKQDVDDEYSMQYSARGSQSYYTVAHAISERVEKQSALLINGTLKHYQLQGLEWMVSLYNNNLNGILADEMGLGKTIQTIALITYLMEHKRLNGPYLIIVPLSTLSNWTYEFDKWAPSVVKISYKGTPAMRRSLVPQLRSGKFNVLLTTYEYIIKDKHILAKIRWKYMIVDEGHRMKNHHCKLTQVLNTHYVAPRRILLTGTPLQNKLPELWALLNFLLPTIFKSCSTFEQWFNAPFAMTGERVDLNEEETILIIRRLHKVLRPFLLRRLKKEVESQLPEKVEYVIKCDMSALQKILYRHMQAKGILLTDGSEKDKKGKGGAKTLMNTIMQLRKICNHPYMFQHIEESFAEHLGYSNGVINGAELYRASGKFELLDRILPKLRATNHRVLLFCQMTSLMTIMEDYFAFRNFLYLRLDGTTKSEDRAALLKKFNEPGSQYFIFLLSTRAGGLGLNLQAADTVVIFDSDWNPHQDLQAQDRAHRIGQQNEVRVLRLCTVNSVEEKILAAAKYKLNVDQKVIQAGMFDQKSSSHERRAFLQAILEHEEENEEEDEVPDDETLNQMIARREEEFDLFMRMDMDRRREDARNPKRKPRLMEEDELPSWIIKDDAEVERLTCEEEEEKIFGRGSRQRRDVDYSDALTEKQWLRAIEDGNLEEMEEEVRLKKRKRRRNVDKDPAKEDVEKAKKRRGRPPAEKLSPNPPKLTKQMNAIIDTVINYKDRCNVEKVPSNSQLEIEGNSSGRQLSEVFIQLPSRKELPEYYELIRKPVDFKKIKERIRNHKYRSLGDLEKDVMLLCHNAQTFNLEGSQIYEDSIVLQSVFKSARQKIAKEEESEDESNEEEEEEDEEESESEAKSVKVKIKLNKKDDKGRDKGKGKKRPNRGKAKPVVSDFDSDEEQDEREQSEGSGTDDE
Procedure: To establish subcutaneous tumours, mice were injected with 5 × 10^6 NCI-H1568 in PBS with 5% FCS or with 1 × 10^7 A549 cells in PBS with 5% FCS. Tumour diameters were measured with a caliper three times a week. The volume of each tumour (in mm^3) was calculated according to the formula [tumour volume = length × diameter^2 × π/6]. To monitor side effects of treatment, mice were inspected daily for abnormalities and body weight was determined daily after the start of treatment. Animals were sacrificed when the tumours reached a size of 1500 mm^3. Mice were randomised into treatment groups when the average tumour size reached ~210–220 mm^3. Group sizes were calculated individually for each tumour model based on tumour growth during model establishment experiments. A power analysis was performed using a sample size calculator (https://www.stat.ubc.ca/~rollin/stats/ssize/n2.html). For both models used in the study, 10 mice per group were used for each experiment. All administrations were dosed with 10 ml/kg (s.c. and oral). Control mice were dosed subcutaneously with 10% HP-β-CD in 50% Ringer solution and orally with 15% HP-β-CD, that means the control mouse treatment was corresponding to the solvent of the compounds. Compound 6 was dosed subcutaneously either in a d1-4 q3d, d6-8 q2d, d11-13 q2d treatment (Treatment 1) or a q3 or 4d treatment (Treatment 2).
Xenograft samples were fixed in 10% formaldehyde for 24 h and later moved to ethanol and embedded in paraffin. 2 µm-thick sections were cut using a microtome, then placed on glass slides ([…], silan printer slides PR-S:001), and subsequently dewaxed. SMARCA2 immunohistochemistry was carried out on the Leica BOND RX platform (Leica Biosystems) according to manufacturer’s instructions using a human-specific SMARCA2 antibody (Cell Signalling #11966 clone D9E8B RRID:AB_2797783 1:400) where the tissue underwent a heat-induced epitope retrieval for 20 min. After staining, the slides were cover-slipped with Shandon Consul-Mount glass covers, scanned using a slide scanner (3D HISTECH Ltd.). All slides were reviewed and evaluated for quality by a board-certified MD specialist in Anatomic Pathology (PC). Imaging analysis was performed using the digital pathology platform HALO (Indica Labs). A tissue-classifying algorithm was trained to selectively recognise viable tumour tissue against stroma, necrosis, and skin. The tissue classification output for each scan was reviewed and manually edited as necessary. A cell detection and scoring algorithm was trained to measure DAB optical density (OD) in the nuclei of tumour cells. A positivity threshold for DAB OD was determined by normalisation with respect to the DAB OD as calculated from bona fide negative tissue (e.g. murine stroma as background). The average, background-normalised DAB OD of tumour cell nuclei was used to quantitate SMARCA2 expression in each xenograft sample.

[2] = Pharmacokinetic analyses in mouse; assay type: in vivo; settings: for AUC(0-t): read-out: AUC0-24h; for Vd: read-out: Vss
Procedure: Compound concentrations in plasma aliquots were measured by quantitative HPLC-MS/MS using an internal standard. Calibration and quality control samples were prepared using blank plasma from untreated animals. Samples were precipitated with acetonitrile and injected into a HPLC system (Agilent 1200). Separation was performed by gradients of 5 mmol/L ammonium acetate pH 4.0 and acetonitrile with 0.1% formic acid on a 2.1 mm by 50 mm XBridge BEH C18 reversed-phase column with 2.5 µm particles (Waters). The HPLC was interfaced by ESI operated in positive ionisation mode to a triple quadrupole mass spectrometer (5000 or 6500+ Triple Quad System, SCIEX) operated in multiple reaction monitoring mode. Transitions were 532.4 to 432.8 m/z for BI01810284, 525.6 to 425.7 m/z for BI01802983 and 1021.6 to 624.2 m/z for BI01580883. Chromatograms were analyzed with Analyst (SCIEX) and pharmacokinetic parameters were calculated by non-compartmental analysis using BI-proprietary software.

[3] = 30 mg/kg po, individual tumours, 30 mg/kg
[4] = 100 mg/kg, PO, 48 h, individual tumours
[5] = 5 mg/kg i.v., individual animals
[6] = 30 mg/kg p.o., individual animals
[7] = NMRI, mouse, plasma, iv, 5 mg/kg, NMRI mice, i.v., 5 mg/kg, PK study
[8] = mouse, 5 mg/kg i.v., NCA, individual animals, 5 mg/kg
[9] = mouse, 30 mg/kg p.o., NCA, individual animals, 30 mg/kg

Cc1ncsc1-c1ccc([C@H](CCCCCN2CCC(c3ccc4c(c3)n(C3CCCC3)c3nc(=O)c5c(Br)cccc5n43)CC2)NC(=O)[C@@H]2C[C@@H](O)CN2C(=O)[C@@H](NC(=O)C2(F)CC2)C(C)(C)C)cc1 [compound 11]
SMARCA2 levels in tumours at the end of the efficacy study, IHC [1]: undetectable by IHC in most treated tumour samples; also recorded: below the limit of detection | SMARCA2 (OD, normalised) [1, 3]: 0.00000 and 0.00917 | SMARCA2 Nuclear OD [1, 3]: 0.03172 and 0.04361 and 0.06213 and 0.0483 | median decrease of SMARCA2 levels in viable tumour tissue compared to vehicle ([1]; 100 mg/kg p.o., 48 h after treatment): 89% | SMARCA2 (OD, normalised) ([1]; 100 mg/kg po, individual tumours): 0.00000 | SMARCA2 Nuclear OD ([1]; 100 mg/kg po, individual tumours, 100 mg/kg): 0.03159 and 0.03653 and 0.04664 and 0.03486 | Avg Stain 1 Nuclear OD (SMARCA2 IHC) [1, 4]: 7.84E-02 and 7.05E-02 and 6.17E-02 and 6.89E-02 | Normalised SMARCA2 (OD) [1, 4]: 0.04325 and 0.03531 and 0.02651 and 0.03377 | AUC [2, 5]: 40.7 µM·h and 36.8 µM·h | AUCinf [2, 5]: 40.9 µM·h and 37 µM·h | Concentration ([2]; 5 mg/kg i.v., time 0.25 h, individual animals): 8050 nM | Concentration ([2]; 5 mg/kg i.v., time 1 h, individual animals): 5350 nM | Concentration ([2]; 5 mg/kg i.v., time 6 h, individual animals): 807 nM | Concentration ([2]; 5 mg/kg i.v., time 24 h, individual animals): 37.6 nM | F ([2]; 30 mg/kg p.o. vs 5 mg/kg i.v., individual animals): 4.09% and 2.11% and 6.74% | AUC [2, 6]: 8.84 µM·h and 4.54 µM·h and 14.6 µM·h | AUCinf [2, 6]: 8.88 µM·h and 4.57 µM·h and 14.6 µM·h | MRT ([2]; NMRI, mouse, plasma, iv, 5 mg/kg, NMRI mice, PK study): 2.9 h | AUC(0-t) [2, 7]: 36 µM·h | AUC(0-inf) ([2]; NMRI, mouse, plasma, iv, 5 mg/kg, NMRI mice, i.v., 5 mg/kg, PK study, read-out: AUC0-inf): 36 µM·h | clearance ([2]; NMRI, mouse, plasma, iv, 5 mg/kg, NMRI mice, i.v., 5 mg/kg, PK study, read-out: Clearance): 2.2 mL/min/kg | Vd [2, 7]: 0.38 L/kg | MRT ([2]; NMRI, mouse, plasma, po, 30 mg/kg, NMRI mice, PK study): 5 h | MRT ([2]; NMRI, mouse, plasma, po, 30 mg/kg, NMRI mice, Xenograft study): 5.6 h | AUC(0-t) ([2]; NMRI, mouse, plasma, po, 30 mg/kg, NMRI mice, p.o., 30 mg/kg, PK study): 9.3 µM·h | AUC(0-inf) ([2]; NMRI, mouse, plasma, po, 30 mg/kg, NMRI mice, p.o., 30 mg/kg, PK study, read-out: AUC0-inf): 9.4 µM·h | bioavailability ([2]; NMRI, mouse, plasma, po, 30 mg/kg, NMRI mice, p.o., 30 mg/kg, PK study, read-out: Bioavailability): 4.3% | AUC(0-t) ([2]; NMRI, mouse, plasma, po, 30 mg/kg, NMRI mice, p.o., 30 mg/kg, Xenograft study): 21 µM·h | AUC(0-inf) ([2]; NMRI, mouse, plasma, po, 30 mg/kg, NMRI mice, p.o., 30 mg/kg, Xenograft study, read-out: AUC0-inf): 21 µM·h | MRT ([2]; NMRI, mouse, plasma, po, 100 mg/kg, NMRI mice): 5.1 h | AUC(0-t) ([2]; NMRI, mouse, plasma, po, 100 mg/kg, NMRI mice, p.o., 100 mg/kg): 38 µM·h | AUC(0-inf) ([2]; NMRI, mouse, plasma, po, 100 mg/kg, NMRI mice, p.o., 100 mg/kg, read-out: AUC0-inf): 39 µM·h | Plasma concentration ([2]; mouse, 5 mg/kg i.v., 0.25 h, individual animals, 5 mg/kg): 9710 nM and 10400 nM | Plasma concentration ([2]; mouse, 5 mg/kg i.v., 1 h, individual animals, 5 mg/kg): 5970 nM and 6930 nM | Plasma concentration ([2]; mouse, 5 mg/kg i.v., 6 h, individual animals, 5 mg/kg): 1490 nM and 870 nM | Plasma concentration ([2]; mouse, 5 mg/kg i.v., 24 h, individual animals, 5 mg/kg): 42.1 nM and 41.5 nM | AUC [2, 8]: 40.7 µM·h and 36.8 µM·h | AUCinf [2, 8]: 40.9 µM·h and 37 µM·h | CL [2, 8]: 1.94 mL/min/kg and 2.14 mL/min/kg | Vss [2, 8]: 0.386 L/kg and 0.334 L/kg | Plasma concentration ([2]; mouse, 30 mg/kg p.o., 0.333 h, individual animals, 30 mg/kg): 172 nM and 94.6 nM and 199 nM | Plasma concentration ([2]; mouse, 30 mg/kg p.o., 1 h, individual animals, 30 mg/kg): 438 nM and 509 nM | Plasma concentration ([2]; mouse, 30 mg/kg p.o., 2 h, individual animals, 30 mg/kg): 577 nM and 1020 nM | Plasma concentration ([2]; mouse, 30 mg/kg p.o., 6 h, individual animals, 30 mg/kg): 565 nM and 239 nM and 1040 nM | Plasma concentration ([2]; mouse, 30 mg/kg p.o., 24 h, individual animals, 30 mg/kg): 6.48 nM and 10.4 nM | AUC [2, 9]: 8.84 µM·h and 4.54 µM·h and 14.6 µM·h | AUCinf [2, 9]: 8.88 µM·h and 4.57 µM·h and 14.6 µM·h | F [2, 9]: 4.09% and 2.11% and 6.74% | concentration at 0.25 h ([2]; mouse, plasma, intravenous, 5 mg/kg, 5 mg/kg i.v., time 0.25 h, individual animals, read-out: Concentration): 9710 nM | concentration at 1 h ([2]; mouse, plasma, intravenous, 5 mg/kg, 5 mg/kg i.v., time 1 h, individual animals, read-out: Concentration): 5970 nM | concentration at 6 h ([2]; mouse, plasma, intravenous, 5 mg/kg, 5 mg/kg i.v., time 6 h, individual animals, read-out: Concentration): 1490 nM | concentration at 24 h ([2]; mouse, plasma, intravenous, 5 mg/kg, 5 mg/kg i.v., time 24 h, individual animals, read-out: Concentration): 42.1 nM | AUC ([2]; mouse, plasma, iv, 5 mg/kg, 5 mg/kg i.v., individual animals, read-out: AUC): 30.4 µM·h | AUC(0-inf) ([2]; mouse, plasma, iv, 5 mg/kg, 5 mg/kg i.v., individual animals, read-out: AUCinf): 30.6 µM·h | concentration at 0.25 h ([2]; mouse, plasma, iv, 5 mg/kg, mouse, 5 mg/kg i.v., 0.25 h, individual animals, read-out: Plasma concentration): 8050 nM | concentration at 1 h ([2]; mouse, plasma, iv, 5 mg/kg, mouse, 5 mg/kg i.v., 1 h, individual animals, read-out: Plasma concentration): 5350 nM | concentration at 6 h ([2]; mouse, plasma, iv, 5 mg/kg, mouse, 5 mg/kg i.v., 6 h, individual animals, read-out: Plasma concentration): 807 nM | concentration at 24 h ([2]; mouse, plasma, iv, 5 mg/kg, mouse, 5 mg/kg i.v., 24 h, individual animals, read-out: Plasma concentration): 37.6 nM | AUC ([2]; mouse, plasma, iv, 5 mg/kg, mouse, 5 mg/kg i.v., NCA, individual animals, read-out: AUC): 30.4 µM·h | AUC(0-inf) ([2]; mouse, plasma, iv, 5 mg/kg, mouse, 5 mg/kg i.v., NCA, individual animals, read-out: AUCinf): 30.6 µM·h | clearance ([2]; mouse, plasma, iv, 5 mg/kg, mouse, 5 mg/kg i.v., NCA, individual animals, read-out: CL): 2.59 mL/min/kg | Vd ([2]; mouse, plasma, iv, 5 mg/kg, mouse, 5 mg/kg i.v., NCA, individual animals): 0.435 L/kg | Vd ([2]; mouse, plasma, iv, 5 mg/kg, mouse, 5 mg/kg i.v.): 0.385 L/kg | clearance ([2]; mouse, plasma, iv, 5 mg/kg, mouse, 5 mg/kg i.v., read-out: clearance): 2.2 mL/min/kg | concentration at 1 h ([2]; mouse, plasma, oral, 30 mg/kg, 30 mg/kg p.o., time 1 h, individual animals, read-out: Concentration): 337 nM | concentration at 2 h ([2]; mouse, plasma, oral, 30 mg/kg, 30 mg/kg p.o., time 2 h, individual animals, read-out: Concentration): 874 nM | concentration at 24 h ([2]; mouse, plasma, oral, 30 mg/kg, 30 mg/kg p.o., time 24 h, individual animals, read-out: Concentration): 8.75 nM | bioavailability ([2]; mouse, plasma, oral, 30 mg/kg, mouse, 30 mg/kg p.o. vs 5 mg/kg i.v., read-out: F% p.o. (oral bioavailability)): 3% | concentration at 1 h ([2]; mouse, plasma, po, 30 mg/kg, mouse, 30 mg/kg p.o., 1 h, individual animals, read-out: Plasma concentration): 337 nM | concentration at 2 h ([2]; mouse, plasma, po, 30 mg/kg, mouse, 30 mg/kg p.o., 2 h, individual animals, read-out: Plasma concentration): 874 nM | concentration at 24 h ([2]; mouse, plasma, po, 30 mg/kg, mouse, 30 mg/kg p.o., 24 h, individual animals, read-out: Plasma concentration): 8.75 nM
